Measured values reported in ChEMBL document CHEMBL4308859, “Discovery of Novel Central Nervous System Penetrant Metabotropic Glutamate Receptor Subtype 2 (mGlu2) Negative Allosteric Modulators (NAMs) Based on Functionalized Pyrazolo[1,5- a]pyrimidine-5-carboxamide and Thieno[3,2- b]pyridine-5-carboxamide Cores” (J Med Chem, 2018).

Key:
[1] = target: Metabotropic glutamate receptor 2 (Rattus norvegicus) (UniProt P31421); assay: Negative allosteric modulation of rat mGlu2R expressed in HEK293 cells co-expressing Galpha15 assessed as decrease in glutamate-induced calcium mobilization at 30 uM preincubated for 2.3 mins followed by glutamate addition and measured after 1.7 mins by Fluo-4-AM dye based fluorescence assay relative to control; assay type: functional, cell-based
Sequence of Metabotropic glutamate receptor 2 (Rattus norvegicus) (P31421 19-872 limits assumed): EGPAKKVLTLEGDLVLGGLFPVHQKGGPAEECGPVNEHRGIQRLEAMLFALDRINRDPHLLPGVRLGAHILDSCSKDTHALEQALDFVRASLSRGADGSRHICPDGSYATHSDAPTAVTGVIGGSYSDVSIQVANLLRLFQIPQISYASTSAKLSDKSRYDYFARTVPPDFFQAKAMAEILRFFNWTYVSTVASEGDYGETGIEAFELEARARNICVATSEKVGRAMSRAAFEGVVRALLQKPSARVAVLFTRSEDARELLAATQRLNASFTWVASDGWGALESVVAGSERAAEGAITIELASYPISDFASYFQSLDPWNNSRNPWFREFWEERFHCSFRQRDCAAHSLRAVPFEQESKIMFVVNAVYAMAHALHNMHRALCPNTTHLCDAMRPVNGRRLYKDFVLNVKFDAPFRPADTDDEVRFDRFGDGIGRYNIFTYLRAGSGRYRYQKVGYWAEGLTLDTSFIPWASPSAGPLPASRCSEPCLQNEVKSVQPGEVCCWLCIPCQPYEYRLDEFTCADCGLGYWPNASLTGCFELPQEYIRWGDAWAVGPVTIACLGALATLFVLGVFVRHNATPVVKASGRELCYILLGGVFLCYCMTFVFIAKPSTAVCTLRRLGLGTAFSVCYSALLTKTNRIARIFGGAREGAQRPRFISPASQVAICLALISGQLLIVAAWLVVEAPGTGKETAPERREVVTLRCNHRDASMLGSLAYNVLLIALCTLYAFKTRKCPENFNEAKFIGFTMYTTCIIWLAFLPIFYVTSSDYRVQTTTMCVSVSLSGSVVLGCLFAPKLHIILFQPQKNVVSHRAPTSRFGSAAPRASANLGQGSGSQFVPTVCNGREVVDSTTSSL

[2] = Fraction unbound in rat brain; assay type: ADME, tissue-based
[3] = Brain to plasma partition coefficient, Kp of the compound in Sprague-Dawley rat at 0.2 mg/kg, iv administered as cassette dose by LC-MS/MS analysis; assay type: ADME, organism-based; details: brain and plasma
[4] = target: Metabotropic glutamate receptor 2 (Rattus norvegicus, UniProt P31421); assay: Negative allosteric modulation of rat mGlu2R expressed in HEK293 cells co-expressing Galpha15 assessed as decrease in glutamate-induced calcium mobilization preincubated for 2.3 mins followed by glutamate addition and measured after 1.7 mins by Fluo-4-AM dye based fluorescence assay; assay type: functional, cell-based
Sequence of Metabotropic glutamate receptor 2 (Rattus norvegicus, UniProt P31421) (P31421 whole entry): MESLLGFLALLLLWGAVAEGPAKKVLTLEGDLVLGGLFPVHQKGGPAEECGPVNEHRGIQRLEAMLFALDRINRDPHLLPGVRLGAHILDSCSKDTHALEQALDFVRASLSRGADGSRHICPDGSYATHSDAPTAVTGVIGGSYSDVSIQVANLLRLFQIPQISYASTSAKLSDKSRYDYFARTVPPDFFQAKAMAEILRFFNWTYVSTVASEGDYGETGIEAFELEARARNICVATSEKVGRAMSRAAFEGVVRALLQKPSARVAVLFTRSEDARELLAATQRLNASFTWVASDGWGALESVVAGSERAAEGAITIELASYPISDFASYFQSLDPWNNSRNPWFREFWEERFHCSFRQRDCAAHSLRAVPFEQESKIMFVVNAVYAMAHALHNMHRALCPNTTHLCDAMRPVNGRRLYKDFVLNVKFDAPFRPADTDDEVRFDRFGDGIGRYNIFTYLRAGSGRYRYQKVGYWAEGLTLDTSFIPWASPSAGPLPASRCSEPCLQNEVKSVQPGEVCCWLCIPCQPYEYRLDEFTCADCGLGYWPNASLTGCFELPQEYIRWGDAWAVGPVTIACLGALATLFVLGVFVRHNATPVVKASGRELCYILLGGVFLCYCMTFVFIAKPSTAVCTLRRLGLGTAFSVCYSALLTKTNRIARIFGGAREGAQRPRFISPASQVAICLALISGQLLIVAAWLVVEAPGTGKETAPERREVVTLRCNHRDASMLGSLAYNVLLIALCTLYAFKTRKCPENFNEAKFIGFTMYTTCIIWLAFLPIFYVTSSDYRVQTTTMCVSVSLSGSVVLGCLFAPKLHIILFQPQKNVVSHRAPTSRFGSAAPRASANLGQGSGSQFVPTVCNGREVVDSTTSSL

[5] = Unbound brain to plasma ratio in Sprague-Dawley rat at 0.2 mg/kg, iv administered as cassette dose by LC-MS/MS analysis; assay type: ADME, organism-based; details: brain and plasma, read-out: K(p,uu,brain)
[6] = Fraction unbound in rat plasma after 4 hrs by equilibrium dialysis method; assay type: ADME, cell-free
[7] = Fraction unbound in human plasma after 4 hrs by equilibrium dialysis method; assay type: ADME, cell-free
[8] = Volume of distribution at steady state in Sprague-Dawley rat at 1 mg/kg, iv by LC-MS/MS analysis; assay type: ADME, organism-based; details: in vivo, read-out: Vdss
[9] = target: Metabotropic glutamate receptor 3 (Rattus norvegicus, UniProt P31422); assay: Negative allosteric modulation of rat mGlu3R expressed in Trex cells co-expressing Galpha15 assessed as decrease in glutamate-induced calcium mobilization preincubated for 2.3 mins followed by glutamate addition and measured after 2.6 mins by Fluo-4-AM dye based fluorescence assay; assay type: functional, cell-based
[10] = target: Metabotropic glutamate receptor 7 (Rattus norvegicus, UniProt P35400); assay: Negative allosteric modulation of rat mGlu7 receptor expressed in HEK cells harboring GIRK assessed as reduction in […]-induced thallium flux preincubated for 2.3 mins followed by […] addition measured after 2.6 mins by BTC-AM-dye based fluorescence assay; assay type: cell-based
[11] = target: Metabotropic glutamate receptor 4 (Rattus norvegicus, UniProt P31423); assay: Negative allosteric modulation of rat mGlu4 receptor expressed in HEK cells harboring GIRK assessed as reduction in glutamate-induced thallium flux preincubated for 2.3 mins followed by glutamate addition measured after 2.6 mins by BTC-AM-dye based fluorescence assay; assay type: cell-based
[12] = Half life in Sprague-Dawley rat at 0.2 mg/kg, iv administered as cassette dose by LC-MS/MS analysis; assay type: ADME, organism-based; details: in vivo; for half-life: Sprague-Dawley
[13] = target: T1, Metabotropic glutamate receptor 5 (Homo sapiens, UniProt P41594); assay: Negative allosteric modulation of human mGlu5R expressed in Trex293 cells assessed as decrease in glutamate-induced calcium mobilization preincubated for 2.3 mins followed by glutamate addition and measured after 2.6 mins by Fluo-4-AM dye based fluorescence assay; assay type: functional, cell-based
T1 sequence (P41594 whole entry): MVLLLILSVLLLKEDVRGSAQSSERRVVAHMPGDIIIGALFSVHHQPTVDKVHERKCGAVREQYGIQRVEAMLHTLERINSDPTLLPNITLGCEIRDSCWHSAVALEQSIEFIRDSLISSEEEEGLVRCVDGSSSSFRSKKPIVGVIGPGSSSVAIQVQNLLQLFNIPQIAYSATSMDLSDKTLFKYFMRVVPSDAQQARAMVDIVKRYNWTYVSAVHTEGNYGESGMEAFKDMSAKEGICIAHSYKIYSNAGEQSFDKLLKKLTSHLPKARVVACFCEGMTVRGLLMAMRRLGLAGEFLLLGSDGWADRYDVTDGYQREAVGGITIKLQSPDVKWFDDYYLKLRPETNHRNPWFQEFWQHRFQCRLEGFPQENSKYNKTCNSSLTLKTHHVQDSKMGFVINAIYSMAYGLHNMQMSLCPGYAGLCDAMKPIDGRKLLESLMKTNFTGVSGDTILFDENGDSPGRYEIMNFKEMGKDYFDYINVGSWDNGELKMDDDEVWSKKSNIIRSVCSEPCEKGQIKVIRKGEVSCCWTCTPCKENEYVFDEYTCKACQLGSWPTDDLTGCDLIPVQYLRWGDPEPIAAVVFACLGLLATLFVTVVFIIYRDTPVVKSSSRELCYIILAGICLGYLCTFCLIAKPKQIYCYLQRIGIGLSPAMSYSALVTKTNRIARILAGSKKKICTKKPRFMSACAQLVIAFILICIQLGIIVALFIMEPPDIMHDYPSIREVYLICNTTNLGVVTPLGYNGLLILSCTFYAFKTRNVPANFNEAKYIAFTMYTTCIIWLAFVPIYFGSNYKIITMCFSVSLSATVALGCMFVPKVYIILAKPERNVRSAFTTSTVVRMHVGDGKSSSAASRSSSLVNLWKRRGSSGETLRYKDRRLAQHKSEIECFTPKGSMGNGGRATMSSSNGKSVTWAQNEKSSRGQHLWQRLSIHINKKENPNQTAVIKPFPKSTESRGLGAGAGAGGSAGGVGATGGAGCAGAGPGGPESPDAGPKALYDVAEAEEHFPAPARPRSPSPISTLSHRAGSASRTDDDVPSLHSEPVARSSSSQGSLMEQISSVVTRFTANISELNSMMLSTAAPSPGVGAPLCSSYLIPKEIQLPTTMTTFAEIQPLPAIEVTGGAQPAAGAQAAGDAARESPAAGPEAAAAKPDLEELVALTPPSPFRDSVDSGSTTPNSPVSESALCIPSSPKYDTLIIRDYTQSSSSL

[14] = Plasma clearance in Sprague-Dawley rat at 0.2 mg/kg, iv administered as cassette dose by LC-MS/MS analysis; assay type: ADME, organism-based
[15] = target: T2, Metabotropic glutamate receptor 6 (Homo sapiens, UniProt O15303); assay: Negative allosteric modulation of human mGlu6 receptor expressed in HEK cells harboring GIRK assessed as reduction in glutamate-induced thallium flux preincubated for 2.3 mins followed by glutamate addition measured after 2.6 mins by BTC-AM-dye based fluorescence assay; assay type: cell-based
T2 sequence (O15303 whole entry): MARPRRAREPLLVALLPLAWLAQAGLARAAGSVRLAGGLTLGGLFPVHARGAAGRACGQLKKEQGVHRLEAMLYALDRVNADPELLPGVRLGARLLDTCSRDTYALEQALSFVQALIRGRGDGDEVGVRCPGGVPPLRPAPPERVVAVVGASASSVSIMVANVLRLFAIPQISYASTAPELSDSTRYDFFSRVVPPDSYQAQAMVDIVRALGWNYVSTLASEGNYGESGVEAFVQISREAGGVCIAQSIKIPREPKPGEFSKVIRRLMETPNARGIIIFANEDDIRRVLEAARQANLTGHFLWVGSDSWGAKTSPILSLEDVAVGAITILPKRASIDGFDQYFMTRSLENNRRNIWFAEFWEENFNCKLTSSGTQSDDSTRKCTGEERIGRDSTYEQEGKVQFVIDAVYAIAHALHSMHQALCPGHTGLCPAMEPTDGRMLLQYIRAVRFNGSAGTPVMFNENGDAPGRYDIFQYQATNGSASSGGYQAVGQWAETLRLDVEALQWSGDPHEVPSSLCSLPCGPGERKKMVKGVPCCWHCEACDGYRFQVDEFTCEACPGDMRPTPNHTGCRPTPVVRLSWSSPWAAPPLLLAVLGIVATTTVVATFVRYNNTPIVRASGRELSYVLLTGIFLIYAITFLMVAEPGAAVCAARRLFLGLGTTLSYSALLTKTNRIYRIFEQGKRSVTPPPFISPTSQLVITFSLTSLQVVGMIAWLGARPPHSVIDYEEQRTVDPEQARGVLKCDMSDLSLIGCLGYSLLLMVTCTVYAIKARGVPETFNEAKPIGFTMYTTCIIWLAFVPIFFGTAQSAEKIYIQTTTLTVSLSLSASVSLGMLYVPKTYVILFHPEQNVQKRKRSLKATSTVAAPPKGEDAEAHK

[16] = Half life in Sprague-Dawley rat at 1 mg/kg, iv by LC-MS/MS analysis; assay type: ADME, organism-based; details: in vivo
[17] = target: Metabotropic glutamate receptor 8 (Rattus norvegicus, UniProt P70579); assay: Negative allosteric modulation of rat mGlu8 receptor expressed in HEK cells harboring GIRK assessed as reduction in glutamate-induced thallium flux preincubated for 2.3 mins followed by glutamate addition measured after 2.6 mins by BTC-AM-dye based fluorescence assay; assay type: cell-based
[18] = target: T3, Metabotropic glutamate receptor 1 (Homo sapiens, UniProt Q13255); assay: Negative allosteric modulation of human mGlu1R expressed in Trex293 cells assessed as decrease in glutamate-induced calcium mobilization preincubated for 2.3 mins followed by glutamate addition and measured after 2.6 mins by Fluo-4-AM dye based fluorescence assay; assay type: functional, cell-based
T3 sequence (Q13255 whole entry): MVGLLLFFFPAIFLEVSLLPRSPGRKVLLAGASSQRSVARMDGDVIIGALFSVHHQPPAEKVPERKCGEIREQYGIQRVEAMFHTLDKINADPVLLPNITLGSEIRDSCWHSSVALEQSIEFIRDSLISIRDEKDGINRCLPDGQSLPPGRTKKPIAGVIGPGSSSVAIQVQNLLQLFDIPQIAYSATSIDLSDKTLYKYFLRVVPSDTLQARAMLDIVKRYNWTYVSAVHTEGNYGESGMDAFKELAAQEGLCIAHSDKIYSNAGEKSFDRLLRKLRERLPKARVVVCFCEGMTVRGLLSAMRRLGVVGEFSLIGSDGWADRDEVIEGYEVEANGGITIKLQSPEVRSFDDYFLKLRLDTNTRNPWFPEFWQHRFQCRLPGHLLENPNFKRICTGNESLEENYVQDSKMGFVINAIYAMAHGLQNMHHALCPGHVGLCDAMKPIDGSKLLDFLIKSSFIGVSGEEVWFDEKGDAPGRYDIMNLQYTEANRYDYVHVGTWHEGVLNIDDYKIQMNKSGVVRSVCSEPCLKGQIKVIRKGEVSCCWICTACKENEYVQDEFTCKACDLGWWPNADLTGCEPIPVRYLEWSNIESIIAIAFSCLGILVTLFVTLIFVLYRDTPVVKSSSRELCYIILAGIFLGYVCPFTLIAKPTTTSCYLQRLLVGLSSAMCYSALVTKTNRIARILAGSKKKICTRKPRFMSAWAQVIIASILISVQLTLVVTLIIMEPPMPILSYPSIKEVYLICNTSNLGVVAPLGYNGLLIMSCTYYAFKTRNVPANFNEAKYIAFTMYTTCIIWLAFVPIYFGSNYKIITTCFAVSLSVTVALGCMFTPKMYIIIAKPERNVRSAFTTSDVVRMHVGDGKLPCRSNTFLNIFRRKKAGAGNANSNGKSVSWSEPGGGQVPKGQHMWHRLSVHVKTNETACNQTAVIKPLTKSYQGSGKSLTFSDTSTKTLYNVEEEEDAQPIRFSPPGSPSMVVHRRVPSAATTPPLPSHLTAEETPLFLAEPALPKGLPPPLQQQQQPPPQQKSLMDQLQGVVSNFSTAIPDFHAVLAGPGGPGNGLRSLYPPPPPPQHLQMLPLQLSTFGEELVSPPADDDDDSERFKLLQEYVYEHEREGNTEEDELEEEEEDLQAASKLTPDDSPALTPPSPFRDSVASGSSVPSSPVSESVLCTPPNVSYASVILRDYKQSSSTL

[19] = Plasma clearance in Sprague-Dawley rat at 1 mg/kg, iv by LC-MS/MS analysis; assay type: ADME, organism-based
[20] = Volume of distribution at steady state in Sprague-Dawley rat at 0.2 mg/kg, iv administered as cassette dose by LC-MS/MS analysis; assay type: ADME, organism-based; details: in vivo, read-out: Vdss
[21] = target: Metabotropic glutamate receptor 3 (Homo sapiens, UniProt Q14832); assay: Negative allosteric modulation of mGlu3R (unknown origin)
[22] = target: Metabotropic glutamate receptor 2 (Homo sapiens, UniProt Q14416); assay: Negative allosteric modulation of mGlu2R (unknown origin)
[23] = Brain to plasma partition coefficient, Kp of the compound in rat; assay type: ADME; details: brain and plasma
[24] = Plasma clearance in mouse; assay type: ADME, organism-based
[25] = target: T3, Metabotropic glutamate receptor 1; assay: Negative allosteric modulation of mGlu1R (unknown origin)
[26] = target: Metabotropic glutamate receptor 8 (Homo sapiens, UniProt O00222); assay: Negative allosteric modulation of mGlu8R (unknown origin)
[27] = target: T1, Metabotropic glutamate receptor 5; assay: Negative allosteric modulation of mGlu5R (unknown origin)
[28] = target: T2, Metabotropic glutamate receptor 6; assay: Negative allosteric modulation of mGlu6R (unknown origin)
[29] = target: Metabotropic glutamate receptor 7 (Homo sapiens, UniProt Q14831); assay: Negative allosteric modulation of mGlu7R (unknown origin)
[30] = target: Metabotropic glutamate receptor 4 (Homo sapiens, UniProt Q14833); assay: Negative allosteric modulation of mGlu4R (unknown origin)
[31] = AUC in Sprague-Dawley rat plasma at 10 mg/kg, ip by LC-MS/MS analysis; assay type: ADME, organism-based; details: in vivo
[32] = Cmax in Sprague-Dawley rat brain at 10 mg/kg, ip by LC-MS/MS analysis; assay type: ADME, organism-based; design: dose 10 mg/kg, route intraperitoneal
[33] = Ratio of AUC in brain to plasma of Sprague-Dawley rat at 10 mg/kg, ip by LC-MS/MS analysis; assay type: ADME, organism-based; details: brain and plasma, read-out: Ratio AUC
[34] = Unbound AUC in Sprague-Dawley rat brain at 10 mg/kg, ip by LC-MS/MS analysis; assay type: ADME, organism-based; details: in vivo
[35] = Unbound Cmax in Sprague-Dawley rat brain at 10 mg/kg, ip by LC-MS/MS analysis; assay type: ADME, organism-based; details: in vivo
[36] = AUC in Sprague-Dawley rat brain at 10 mg/kg, ip by LC-MS/MS analysis; assay type: ADME, organism-based; details: in vivo
[37] = Cmax in Sprague-Dawley rat plasma at 10 mg/kg, ip by LC-MS/MS analysis; assay type: ADME, organism-based; design: dose 10 mg/kg, route intraperitoneal

SMILES	Emax [1] [%]	fraction unbound [2]	Kp [3]	IC50 [4] [µM]	Kp uu [5]	fraction unbound at 4 h [6]	fraction unbound at 4 h [7]	other results
COc1ccc(-c2cc(C(N)=O)nc3cc(COc4ccc(C(F)(F)F)nc4)nn23)c(F)c1	4.2	0.003 to 0.009	2.5 to 2.7	0.347	0.4 to 0.6	0.03 to 0.12	0.03 to 0.12	–
COc1ccc(-c2cc(C(N)=O)nc3cc(COc4ccnc(C(F)(F)F)c4)nn23)c(F)c1	2.1	0.003 to 0.009	2.5 to 2.7	0.148	0.4 to 0.6	0.03 to 0.12	0.03 to 0.12	–
COc1ccc(-c2cc(C(N)=O)nc3cc(COc4ccnc(C)c4)nn23)c(F)c1	35.4	0.003 to 0.009	2.5 to 2.7	0.288	0.4 to 0.6	0.03 to 0.12	0.03 to 0.12	–
NC(=O)c1cc(-c2ccc(F)cc2)n2nc(COc3ccnc(C(F)(F)F)c3)cc2n1	2.4	0.007	4.04	0.794	0.86	0.03	0.01	Vd [8]: 6.59 L/kg; IC50 [9]: > 30 µM; IC50 [10]: > 30 µM; IC50 [11]: > 30 µM; half-life [12]: 4.28 h; IC50 [13]: > 30 µM; clearance [14]: 10 mL/min/kg; IC50 [15]: > 30 µM; half-life [16]: 5.53 h; IC50 [17]: > 30 µM; IC50 [18]: > 30 µM; clearance [19]: 16.4 mL/min/kg; Vd [20]: 3.31 L/kg
COc1ccc(-c2cc(C(N)=O)nc3cc(COc4cnc(C)nc4)sc23)cc1	2.6	0.003	3.41	0.316	0.49	0.02	0.01	Emax ([1]; tested as the 2H-labelled form): 2.8%; half-life [12]: 0.238 h; clearance [14]: 389 mL/min/kg; Vd [20]: 6.49 L/kg
C[C@@H]1CN(Cc2ccc3c(c2)c(=O)c(C(N)=O)cn3-c2ccc(F)cc2)C[C@H](C)O1	–	–	–	–	–	–	–	IC50 [21]: > 30 µM; IC50 [22]: 0.207 µM; Kp [23]: 0.3
NC(=O)c1cc(-c2ccc(F)cc2)n2nc(CCc3ccnc(C(F)(F)F)c3)cc2n1	2.3	0.006	4.25	0.087	0.59	0.04	0.02	–
Cc1ccc(OCc2cc3nc(C(N)=O)cc(-c4ccc(F)cc4)c3s2)cn1	2.2	0.003	7.99	0.676	0.2	0.02	0.05	–
Cn1ccc(COc2cnc(C(N)=O)cc2-c2ccc(F)cc2)n1	–	–	–	–	–	–	–	IC50 [21]: > 30 µM; clearance [24]: 118 mL/min/kg; IC50 [25]: > 30 µM; IC50 [26]: > 30 µM; IC50 [27]: > 30 µM; IC50 [28]: > 30 µM; IC50 [29]: > 30 µM; Kp [23]: 1.9; IC50 [30]: > 30 µM
C[C@@H]1CN(Cc2cc3nc(C(N)=O)cc(-c4ccc(F)cc4)c3s2)C[C@H](C)O1	2.3	0.005	5.67	0.55	0.52	0.05	0.01	AUC [31]: 5.81 µM; IC50 [9]: > 30 µM; Cmax [32]: 6.09 µM; IC50 [10]: > 30 µM; IC50 [11]: > 30 µM; Kp [33]: 5.67; t1/2 [12]: 1.5 h; fAUC [34]: 165 nM; IC50 [13]: > 30 µM; IC50 [15]: > 30 µM; fCmax [35]: 30.4 nM; IC50 [17]: > 30 µM; IC50 [18]: > 30 µM; AUC [36]: 32.9 µM; Cmax [37]: 1.07 µM
NC(=O)c1cc(-c2ccc(F)cc2F)n2nc(COc3ccnc(C(F)(F)F)c3)cc2n1	1.5	0.003 to 0.009	2.5 to 2.7	0.102	0.4 to 0.6	0.03 to 0.12	0.03 to 0.12	–
[11CH3]Oc1ccc(-c2cc(C(N)=O)nc3cc(CN4C(=O)CCC4=O)ccc23)c(F)c1	–	–	–	–	–	–	–	IC50 [21]: > 30 µM; Kp [23]: 0.3
NC(=O)c1cc(-c2ccc(F)cc2)n2nc(COc3ccnc(Br)c3)cc2n1	19.7	0.003 to 0.009	2.5 to 2.7	0.224	0.4 to 0.6	0.03 to 0.12	0.03 to 0.12	–
